# According to ChEMBL document CHEMBL5303573, “Mapping human microbiome drug metabolism by gut bacteria and their genes” (Nature, 2019):
# Columns and labels:
# [1] = The drug is tested on Clostridium sporogenes strain: ATCC15579 for biotransformation. The drug concentrations were measured before and after a 12-h incubation by liquid-chromatography-coupled mass spectrometry (LC–MS); settings: 2 µM
# [2] = The drug is tested on Escherichia coli strain: BW25113 for biotransformation. The drug concentrations were measured before and after a 12-h incubation by liquid-chromatography-coupled mass spectrometry (LC–MS); settings: 2 µM
# [3] = The drug is tested on Bacteroides finegoldii strain: DSM17565 for biotransformation. The drug concentrations were measured before and after a 12-h incubation by liquid-chromatography-coupled mass spectrometry (LC–MS); settings: 2 µM
# [4] = The drug is tested on Odoribacter splanchnicus strain: fecal isolate for biotransformation. The drug concentrations were measured before and after a 12-h incubation by liquid-chromatography-coupled mass spectrometry (LC–MS); settings: 2 µM
# [5] = The drug is tested on Clostridium scindens strain: ATCC35704 for biotransformation. The drug concentrations were measured before and after a 12-h incubation by liquid-chromatography-coupled mass spectrometry (LC–MS); settings: 2 µM
# [6] = The drug is tested on Bacteroides dorei strain: DSM17855 for biotransformation. The drug concentrations were measured before and after a 12-h incubation by liquid-chromatography-coupled mass spectrometry (LC–MS); settings: phocaeicola dorei, 2 µM
# [7] = bacteroides thetaiotaomicron, 12 h, 2 µM
# Description: The drug is tested on Bacteroides thetaiotaomicron strain: 3731 for biotransformation. The drug concentrations were measured before and after a 12-h incubation by liquid-chromatography-coupled mass spectrometry (LC–MS)
# [8] = The drug is tested on Collinsella aerofaciens strain: ATCC25986 for biotransformation. The drug concentrations were measured before and after a 12-h incubation by liquid-chromatography-coupled mass spectrometry (LC–MS); settings: 2 µM
# [9] = The drug is tested on Collinsella intestinalis strain: DSM13280 for biotransformation. The drug concentrations were measured before and after a 12-h incubation by liquid-chromatography-coupled mass spectrometry (LC–MS); settings: 2 µM
# [10] = akkermansia muciniphila, 12 h, 2 µM
# Description: The drug is tested on Akkermansia muciniphila strain: ATCC BAA-835 for biotransformation. The drug concentrations were measured before and after a 12-h incubation by liquid-chromatography-coupled mass spectrometry (LC–MS)
# [11] = The drug is tested on Eubacterium hallii strain: DSM3353 for biotransformation. The drug concentrations were measured before and after a 12-h incubation by liquid-chromatography-coupled mass spectrometry (LC–MS); settings: anaerobutyricum hallii, 2 µM
# [12] = The drug is tested on Anaerococcus hydrogenalis strain: DSM7454 for biotransformation. The drug concentrations were measured before and after a 12-h incubation by liquid-chromatography-coupled mass spectrometry (LC–MS); settings: 2 µM
# [13] = bacteroides stercoris, 12 h, 2 µM
# Description: The drug is tested on Bacteroides stercoris strain: ATCC43183 for biotransformation. The drug concentrations were measured before and after a 12-h incubation by liquid-chromatography-coupled mass spectrometry (LC–MS)
# [14] = The drug is tested on Edwardsiella tarda strain: ATCC23685 for biotransformation. The drug concentrations were measured before and after a 12-h incubation by liquid-chromatography-coupled mass spectrometry (LC–MS); settings: 2 µM
# [15] = The drug is tested on Bacteroides fragilis strain: HMW615 for biotransformation. The drug concentrations were measured before and after a 12-h incubation by liquid-chromatography-coupled mass spectrometry (LC–MS); settings: 2 µM
# [16] = The drug is tested on Bacteroides vulgatus strain: ATCC8482 for biotransformation. The drug concentrations were measured before and after a 12-h incubation by liquid-chromatography-coupled mass spectrometry (LC–MS); settings: phocaeicola vulgatus, 2 µM
# [17] = The drug is tested on Bacteroides uniformis strain: ATCC8492 for biotransformation. The drug concentrations were measured before and after a 12-h incubation by liquid-chromatography-coupled mass spectrometry (LC–MS); settings: 2 µM
# [18] = The drug is tested on Clostridium ramosum strain: DSM1402 for biotransformation. The drug concentrations were measured before and after a 12-h incubation by liquid-chromatography-coupled mass spectrometry (LC–MS); settings: thomasclavelia ramosa, 2 µM
SMILES,Bacterial Biotransformation [1],Bacterial Biotransformation [2],Bacterial Biotransformation [3],Bacterial Biotransformation [4],Bacterial Biotransformation [5],Bacterial Biotransformation [6],Bacterial Biotransformation [7],Bacterial Biotransformation [8],Bacterial Biotransformation [9],Bacterial Biotransformation [10],Bacterial Biotransformation [11],Bacterial Biotransformation [12],Bacterial Biotransformation [13],Bacterial Biotransformation [14],Bacterial Biotransformation [15],Bacterial Biotransformation [16],Bacterial Biotransformation [17],Bacterial Biotransformation [18]
C[C@]12CCC(=O)C=C1[C@@H]1C[C@@H]1[C@H]1[C@@H]3[C@@H]4C[C@@H]4[C@@]4(CCC(=O)O4)[C@@]3(C)CC[C@@H]12 [DROSPIRENONE],Compound metabolized,Compound NOT metabolized,Compound NOT metabolized,Compound metabolized,Compound NOT metabolized,Compound metabolized,Compound NOT metabolized,Compound NOT metabolized,Compound NOT metabolized,Compound NOT metabolized,Compound NOT metabolized,Compound NOT metabolized,Compound NOT metabolized,Compound NOT metabolized,Compound metabolized,Compound metabolized,Compound metabolized,–
Br.CN1CCC[C@@H]1Cc1c[nH]c2ccc(CCS(=O)(=O)c3ccccc3)cc12 [ELETRIPTAN HYDROBROMIDE],Compound NOT metabolized,–,Compound NOT metabolized,Compound NOT metabolized,Compound NOT metabolized,Compound NOT metabolized,–,Compound NOT metabolized,Compound NOT metabolized,Compound NOT metabolized,Compound NOT metabolized,Compound NOT metabolized,Compound NOT metabolized,Compound NOT metabolized,–,Compound NOT metabolized,Compound NOT metabolized,Compound NOT metabolized
C[C@@H](CO)NC(=O)[C@@H]1C=C2c3cccc4[nH]cc(c34)C[C@H]2N(C)C1.O=C(O)/C=C\C(=O)O [ERGONOVINE MALEATE],–,Compound NOT metabolized,Compound NOT metabolized,Compound metabolized,Compound metabolized,Compound metabolized,Compound NOT metabolized,Compound metabolized,–,Compound NOT metabolized,–,Compound metabolized,Compound NOT metabolized,Compound NOT metabolized,Compound metabolized,Compound metabolized,Compound metabolized,Compound NOT metabolized
CC(C)OC(=O)C(C)(C)Oc1ccc(C(=O)c2ccc(Cl)cc2)cc1 [FENOFIBRATE],–,–,Compound NOT metabolized,–,Compound NOT metabolized,–,Compound NOT metabolized,Compound NOT metabolized,Compound NOT metabolized,–,Compound NOT metabolized,Compound NOT metabolized,Compound NOT metabolized,Compound NOT metabolized,Compound NOT metabolized,–,Compound metabolized,Compound NOT metabolized
CS(=O)(=O)O.OC(CCN1CCCCC1)(c1ccccc1)c1ccccc1 [PRIDINOL METHANESULFONATE],Compound NOT metabolized,Compound NOT metabolized,Compound NOT metabolized,Compound NOT metabolized,Compound NOT metabolized,Compound NOT metabolized,Compound NOT metabolized,Compound NOT metabolized,Compound NOT metabolized,Compound NOT metabolized,Compound NOT metabolized,Compound NOT metabolized,Compound NOT metabolized,Compound NOT metabolized,Compound NOT metabolized,Compound NOT metabolized,–,Compound NOT metabolized
CCN(CC)CCCC(C)Nc1c2ccc(Cl)cc2nc2ccc(OC)cc12 (centres undefined) [QUINACRINE],Compound NOT metabolized,Compound NOT metabolized,Compound NOT metabolized,Compound NOT metabolized,–,Compound NOT metabolized,Compound NOT metabolized,Compound NOT metabolized,Compound NOT metabolized,Compound NOT metabolized,Compound NOT metabolized,–,Compound NOT metabolized,–,–,Compound NOT metabolized,Compound NOT metabolized,Compound NOT metabolized
CCN(C)C(=O)Oc1cccc([C@H](C)N(C)C)c1.O=C(O)C(O)C(O)C(=O)O [RIVASTIGMINE TARTRATE],Compound NOT metabolized,Compound NOT metabolized,Compound NOT metabolized,Compound NOT metabolized,Compound NOT metabolized,–,Compound NOT metabolized,Compound NOT metabolized,Compound NOT metabolized,Compound NOT metabolized,Compound NOT metabolized,Compound NOT metabolized,Compound NOT metabolized,Compound NOT metabolized,Compound NOT metabolized,–,Compound NOT metabolized,Compound NOT metabolized
CCCN(CCC)CCc1cccc2c1CC(=O)N2 [ROPINIROLE],Compound NOT metabolized,Compound NOT metabolized,Compound NOT metabolized,–,Compound NOT metabolized,Compound NOT metabolized,–,Compound NOT metabolized,Compound NOT metabolized,Compound NOT metabolized,Compound NOT metabolized,Compound NOT metabolized,Compound NOT metabolized,Compound NOT metabolized,Compound NOT metabolized,Compound NOT metabolized,Compound NOT metabolized,Compound NOT metabolized
O=c1n(CCCN2CCN(c3cccc(Cl)c3)CC2)nc2ccccn12 [TRAZODONE],Compound NOT metabolized,Compound NOT metabolized,Compound NOT metabolized,–,Compound NOT metabolized,Compound NOT metabolized,Compound NOT metabolized,Compound NOT metabolized,Compound NOT metabolized,Compound NOT metabolized,Compound NOT metabolized,Compound NOT metabolized,Compound NOT metabolized,Compound NOT metabolized,Compound NOT metabolized,Compound NOT metabolized,–,–
CC(=O)CC(c1ccccc1)c1c(O)c2ccccc2oc1=O (centres undefined) [WARFARIN],–,Compound NOT metabolized,Compound NOT metabolized,Compound NOT metabolized,Compound NOT metabolized,Compound NOT metabolized,Compound NOT metabolized,Compound NOT metabolized,Compound NOT metabolized,Compound NOT metabolized,Compound NOT metabolized,Compound NOT metabolized,Compound NOT metabolized,Compound NOT metabolized,Compound metabolized,Compound metabolized,Compound NOT metabolized,Compound NOT metabolized
